One data set in a line: in vitro. The format is in vitro ADME. The following applies: conversion of profenofos to BCP; for Km: pH 7.4. Here is the method: Incubations of profenofos with rat and human liver microsomes, liver cytosol and plasma were performed to quantify in vitro rates of BCP formation. Conditions were optimized to be linear for metabolite formation with regard to incubation time and microsomal, cytosolic and plasma protein concentration (data not shown). The final incubations were carried out in 100 mM Tris HCl (pH 7.4, 37 °C) containing (final concentrations) 5 mM MgCl2, 2 mM CaCl2 [to stimulate PON1 activity (Carr et al. [2015])], 2 mM NADPH (cofactor to also include CYP-mediated metabolism), enzyme preparation (final concentration 2 mg/ml for human liver microsomes and cytosol and 4.4 mg/ml for human plasma; 0.5 mg/ml for rat microsomes and cytosol and 1.65 mg/ml for rat plasma) and profenofos (at final concentrations ranging from 1 to 100 μM, added from 100 times concentrated stock solutions in DMSO). Control incubations were performed in the absence of microsomes, cytosol or plasma. After 2 min pre-incubation, the reaction was initiated by adding the substrate and mixtures were incubated for 2 min in a 37 °C water bath. The total volume of the incubation mixtures was 200 μl. The reaction was terminated by the addition of 50 μl ice cold ACN and samples were kept on ice. The mixture was centrifuged at 14,000g for 20 min at 4 °C and the supernatant was analyzed using UPLC-UV.
All samples from incubations were analyzed using a Waters Acquity UPLC H class system that consisted of a quaternary solvent manager, a sample manager, and a photodiode array (PDA) detector, equipped with a Water Acquity UPLC® BEH C18 column (1.7 μm, 2.1 × 50 mm) and Waters Xbridge UPLC® BEH C18 pre-column (2.5 μM, 2.1 × 5 mm). The temperature of the column was kept at 40 °C and the auto sampler at 10 °C during the UPLC analysis. The mobile phases used for the analysis consisted of (A) 0.1% TFA in nanopure water and (B) 100% ACN. A gradient elution at a flow rate of 0.6 ml/min was applied for the analysis with the initial condition of 100% A:0% B (v/v), changing in a linear way to 0% A:100% B from 0 to 6 min, which was maintained for 30 s, and then changed back to the initial conditions in 30 s, which were maintained for 1 min. The injection volume for each sample was 3.5 μl.
Under these conditions, the retention times of profenofos and BCP were 4.76 and 3.37 min, respectively. The amounts of profenofos and BCP were quantified by integrating the peak areas at 237 nm using calibration curves that were prepared using commercially available standards.
Kinetic parameters including the apparent maximum velocity (Vmax) and the apparent Michaelis–Menten constant (Km) for BCP formation were obtained by fitting the data for the substrate concentration-dependent rate of conversion (expressed in nmol/min/mg protein) using GraphPad Prism 5, version 5.04 (San Diego, California, USA) to the standard Michaelis–Menten equation: V=Vmax∗S/(Km+S) in which the S represents the concentration of substrate, expressed in μM, V and Vmax the velocity and the maximum velocity of the reaction, respectively, expressed in nmol/min/mg protein, and Km the apparent Michaelis–Menten constant, expressed in μM. The kinetic parameter values for conversion of profenofos to BCP in the liver microsomes, liver cytosol and plasma were determined. To determine the catalytic efficiency, Vmax was divided by the Km.

Data set [1] in a line: Control incubations without microsomes, cytosol or plasma (spontaneous hydrolysis). The format is physicochemical. The following applies: 100 mM Tris HCl pH 7.4, 37 °C, 2 min, no enzyme preparation. Here is the method:
Incubations of profenofos with rat and human liver microsomes, liver cytosol and plasma were performed to quantify in vitro rates of BCP formation. Conditions were optimized to be linear for metabolite formation with regard to incubation time and microsomal, cytosolic and plasma protein concentration (data not shown). […] The mixture was centrifuged at 14,000g for 20 min at 4 °C and the supernatant was analyzed using UPLC-UV.
The conversion of profenofos to BCP was measured in incubations with both rat and human liver microsomes, cytosol and plasma. […] In control incubations, small amounts (max 0.04% of the amount of profenofos added) of BCP were detected, indicating some spontaneous hydrolysis of profenofos in the aqueous environment, which has also been observed in previous studies (Aly and Badawy [1982]). The BCP formation data for microsomes, cytosol and plasma were, therefore, corrected for BCP levels detected in control incubations.

A further data set has as its system AChE. The experiment in a line: PBK modeling-facilitated reverse dosimetry and BMD modelling of predicted AChE inhibition in humans. Further details: species or system human. The source says:
In the present study, it was assumed that in vivo dose-dependent AChE inhibition (in blood) depends on the maximum concentration (Cmax) of profenofos reached in the blood. For adequate PBK modeling-facilitated reverse dosimetry, the active (unbound) concentration of a test chemical in the in vitro test system should be linked to the in vivo freely available chemical at the target site. This is important since it is assumed that it is the fraction unbound that causes the effect (AChE inhibition). In the in vitro incubations, a very low concentration of BSA (0.1 mg/mL) is present. Heilmair et al. ([2008]) reported that with such low BSA concentrations, the free concentration of chlorpyrifos oxon is not affected. Furthermore, Rosenfeld and Sultatos ([2006]) found no evidence of binding of paraoxon by BSA even at a higher concentration (1 mg/ml) during incubations. Based on these observations, no significant effect on the free fraction of profenofos in the in vitro AChE inhibition studies is expected, which corroborated with estimations on profenofos binding in the in vitro incubations with help of the online simcyp tool (https://www.certara.com/software/pbpk-modeling-and-simulation/).
By calculating with the PBK model, the external dose required to reach (as unbound Cmax) the concentrations applied in the in vitro test, each in vitro concentration was translated into an in vivo dose. […]

Another data set concerns brain AChE. The experiment in a line: In vivo brain AChE inhibition in rats, single exposure (JMPR). The following applies: rat. From the text:
To evaluate the performance of the PBK modeling-facilitated reverse dosimetry approach to predict in vivo AChE inhibition, the predicted dose–response curve for rat AChE inhibition upon exposure to profenofos was compared with available in vivo data on AChE inhibition in rats (JMPR [2007]). Furthermore, the predicted dose–response data were used for BMD modeling, using EFSA PROAST version 69.0 (https://shiny-efsa.openanalytics.eu/app/bmd) using the model averaging approach to allow evaluation of the prediction by comparison of BMDL10 values obtained from the predicted dose–response data to points of departure derived by regulatory bodies (EPA [2016]; JMPR [2007], EFSA [2019]). To that end, the obtained BMDL10 values were compared with a reported BMDL10 value from a rat study on profenofos-induced RBC AChE inhibition, which was recently used to obtain an ARfD by the US EPA (EPA [2016]), and a reported NOAEL value on profenofos-induced rat brain acetylcholinesterase inhibition, which has been used to obtain an ARfD by JMPR ([2007]).

The subject of data set [2] is AChE of human erythrocytes. The following applies: freshly obtained human erythrocytes; ref Das and Jamil [2006]; read-out: IC50 AChE inhibition; cited from earlier work.
For the next data set, the system named is RBC AChE. The following applies: adult rats, single exposure; ref EPA [2016]; cited from earlier work.

Where only a bound is given, the exact number is not on record here.

On to `CCCSP(=O)(OCC)Oc1ccc(Br)cc1Cl` (centres unmarked) [profenofos, O-(4-bromo-2-chlorophenyl) O-ethyl S-propyl phosphorothioate], for which the Vmax in the data set “in vitro” (rat liver cytosol) is reported as 0.95 nmol/min/mg cytosolic protein; in the data set “in vitro” (rat liver microsomes) it was 8.9 nmol/min/mg microsomal protein; in “in vitro” (rat plasma), 0.68 nmol/min/mg plasma protein. Further, the Km in “in vitro” (rat liver cytosol) amounted to 0.34 µM; in the data set “in vitro” (rat liver microsomes), 8.1 µM; in “in vitro” (rat plasma), 3.6 µM. Besides, the “BCP detected in control incubations (spontaneous hydrolysis)” value in data set [1] was ≤ 0.04 % of the amount of profenofos added. The “Interspecies difference in predicted BMDL10 (rat vs human)” value with AChE is listed as 45 fold. In addition, the “JMPR NOAEL relative to US EPA BMDL10” value in the data set with brain AChE is given as 50 fold. The IC50 in data set [2] was 350 nM. For the same molecule, the “BMDL10 for RBC AChE inhibition” value with RBC AChE is 1.99 mg/kg bw.

What is called Km is the concentration of substrate that gives half-maximal velocity. The IC50 is the concentration at which inhibition is half-maximal.

The record behind these values is article PMC8032624, “Prediction of dose-dependent in vivo acetylcholinesterase inhibition by profenofos in rats and humans using physiologically based kinetic (PBK) modeling-facilitated reverse dosimetry” (Archives of Toxicology, 2021).
